Where two headings read alike, the source gives them in different places.

One series concerns MMPs. The conditions noted are these: cited from earlier work; for selectivity for MMP-2 and MMP-9 over the other MMPs: derivatized alanine hydroxamates.
In another series the target is T1, activated MMP-9 (Homo sapiens, UniProt P14780).
T1 construct: purchased R&D Systems
The series is described as follows: In-vitro MMP inhibition assay (fluorogenic peptide substrate). The conditions noted are these: 1 h at 27° C., triplicate. The format is biochemical. As to the method:
(§1) Individual inhibitors were dissolved in TCN buffer (50 mM Tris-HCl, 10 mM CaCl2, 150 mM […], 0.05% Brij 35 at pH 7.5) at appropriate dilutions then added to the wells of a microtiter plate (10 μL/well) in triplicate. Each well of test agent (and appropriate control wells) was then treated with activated MMP-2 or 9 (10 μL of a 40 nM solution in 50 mM Hepes, 10 mM CaCl2), 1% Brij 35 at pH 7.5; R&D Systems) followed by 30 μL TCN buffer and 150 μL the fluorogenic peptide substrate (Mca-PLGL-Dpa-AR-NH2; R&D Systems). The resulting mixtures were incubated 1 h at 27° C. then analyzed using a FL600 fluorescent plate reader (excitation=310/20; emission=420/50; optics=bottom; sensitivity=225) and KC4 Software.

Another series has as its target T2, activated MMP-2 (Homo sapiens, UniProt P08253).
T2 construct: purchased R&D Systems
T2 sequence (P08253 110-660): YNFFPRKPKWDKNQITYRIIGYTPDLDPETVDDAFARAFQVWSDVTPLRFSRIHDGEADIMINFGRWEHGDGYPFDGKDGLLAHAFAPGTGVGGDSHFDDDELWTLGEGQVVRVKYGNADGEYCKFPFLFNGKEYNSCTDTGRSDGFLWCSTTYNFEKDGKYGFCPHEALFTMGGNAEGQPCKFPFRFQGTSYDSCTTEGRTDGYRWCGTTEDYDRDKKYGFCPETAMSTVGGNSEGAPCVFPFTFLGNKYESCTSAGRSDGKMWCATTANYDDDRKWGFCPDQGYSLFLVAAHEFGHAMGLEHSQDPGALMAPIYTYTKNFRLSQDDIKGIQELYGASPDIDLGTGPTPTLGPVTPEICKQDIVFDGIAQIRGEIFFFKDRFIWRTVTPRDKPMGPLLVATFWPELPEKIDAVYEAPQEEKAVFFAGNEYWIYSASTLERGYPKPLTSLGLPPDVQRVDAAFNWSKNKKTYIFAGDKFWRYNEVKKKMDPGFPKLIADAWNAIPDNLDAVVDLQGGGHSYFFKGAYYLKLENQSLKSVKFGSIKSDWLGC
The series is described as above. It is filed as biochemical. The conditions noted are these: 1 h at 27° C., triplicate. On the procedure:
as §1

Series [1] can be described thus: Tissue biodistribution in the Oncomouse. It is filed as in vivo, mice. The conditions noted are these: tail vein injection, 1 h post-injection, mean±SEM. On the procedure: Oncomice®, obtained through an in-house breeding program, were anesthetized intramuscularly with 0.1 mL of ketamine/acepromazine (1.8 mL saline, 1.0 mL ketamine, and 0.2 mL acepromazine) prior to dosing and tissue sampling. Individual mice were then injected via the tail vein with an imaging agent of the present invention (0.5-2.0 mCi/kg in 0.1 mL). Mice were euthanized and biodistribution performed at 1 h post-injection. Selected tissues were removed, weighed, and counted on a gamma counter. Results are expressed as the percentage of injected dose per gram tissue (mean±SEM; Table 3).

For the next series, the system named is activated MMPs. The series is described as follows: MicroSPECT/CT imaging of aortic arch MMP activation in ApoE-/- mice under anti-lipid therapies. The conditions noted are these: 4 weeks of therapy; HFD group 4.99±0.27. The format is in vivo. On the procedure:
Methods: ApoE^−/− mice were fed a high fat diet (HFD) for 2 months to induce atherosclerosis. After two months, the mice were randomly assigned to one of 4 groups: HFD, HFD plus simvastatin (Sim), HFD plus fenofibrate (Fen) and high fat withdrawal (HFW). MicroSPECT/CT imaging using ^99mTc-RP805, a tracer with specificity for activated MMPs was performed after one week and 4 weeks.

T1 sequence (P14780 107-707 limits assumed): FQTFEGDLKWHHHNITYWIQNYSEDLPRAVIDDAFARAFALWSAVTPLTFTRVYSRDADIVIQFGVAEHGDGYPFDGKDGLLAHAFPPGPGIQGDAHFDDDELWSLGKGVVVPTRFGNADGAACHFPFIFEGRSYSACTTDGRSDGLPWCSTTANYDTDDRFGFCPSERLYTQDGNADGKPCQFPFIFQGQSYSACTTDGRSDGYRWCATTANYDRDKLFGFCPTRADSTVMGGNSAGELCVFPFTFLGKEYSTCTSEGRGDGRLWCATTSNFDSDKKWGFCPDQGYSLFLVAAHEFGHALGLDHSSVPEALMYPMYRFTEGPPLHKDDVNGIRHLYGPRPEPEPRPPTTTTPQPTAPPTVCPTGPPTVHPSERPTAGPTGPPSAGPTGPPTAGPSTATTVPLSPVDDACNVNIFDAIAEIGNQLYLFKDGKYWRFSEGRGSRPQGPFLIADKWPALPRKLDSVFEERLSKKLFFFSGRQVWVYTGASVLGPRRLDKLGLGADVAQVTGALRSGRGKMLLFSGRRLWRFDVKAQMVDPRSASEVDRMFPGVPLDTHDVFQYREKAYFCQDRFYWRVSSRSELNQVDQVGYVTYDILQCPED

Take `CCCCCCCCC[C@H](CC(=O)NO)C(=O)N[C@H](C(=O)NC)C(C)(C)C` [1-5]: the “selectivity for MMP-2 over MMP-1 and MMP-3” value in the series on MMPs (long alkyl substituent at P1' position) was “imparts selectivity”.

On to `CNC(=O)[C@@H]1Cc2ccc(cc2)OCCC[C@H](C(=O)NO)[C@@H](CC(C)C)C(=O)N1` [1-6], for which the “activity against MMPs” value in the series with MMPs (macrocyclic succinyl hydroxamate) is recorded as “nanomolar activity”.

`O=C(NO)C1CCCN[C@@H]1C(=O)N1CCC(c2ccccc2)CC1` (stereo partly drawn) [1-8]: the “inhibition of MMPs” value in the series with MMPs (succinyl hydroxamate with modified P2' and P3' positions) is reported as “potent inhibition”.

For the compound `COc1ccc(Oc2ccc([C@]3(C)CCN([C@H](C)C(=O)NO)C3=O)cc2)cc1OC` [1-11], the “selectivity for MMP-2 and MMP-9 over the other MMPs” value in the series on MMPs is “show selectivity”.

Take `C[C@H](C(=O)NO)N1CCNc2cc(OCc3ccccc3)ccc2S1(=O)=O` [1-12]: the “selectivity for MMP-2 and MMP-9 over the other MMPs” value in the series with MMPs was “show selectivity”.

Consider `O=C(NO)C1(CS(=O)(=O)c2ccc(Oc3ccc(Cl)cc3)cc2)CCOCC1` [1-13], for which, in the series with MMPs, the “selectivity for MMP-2 and MMP-9 over MMP-1” value is “selectivity”.

Consider `CCCCCCC[C@H](CC(=O)CS)C(=O)N[C@H](C(=O)NC)C(C)(C)C` [1-15], for which the “activity against MMPs” value in the series on MMPs (succinyl thiol) is listed as “good activity”.

Turning to `CC(C)C[C@H]1C(=O)N[C@H](C(=O)NCCCF)Cc2ccc(cc2)OCCC[C@@H]1C(=O)NO` [Imaging Agent 1], the IC50 against activated MMP-9 was 3.54 nM; against activated MMP-2, 5.19 nM.

Turning to `CC(C)C[C@H]1C(=O)N[C@H](C(=O)NCCCCCCF)Cc2ccc(cc2)OCCC[C@@H]1C(=O)NO` [Imaging Agent 2], in series [1], the “Imaging agent distribution, blood” value came out at 1.07 ± 0.060 % ID/g; the “Imaging agent distribution, bone” value is 2.02 ± 0.320 % ID/g; the “Imaging agent distribution, heart” value is given as 0.95 ± 0.065 % ID/g; the “Imaging agent distribution, kidney” value was determined as 20.6 ± 3.25 % ID/g. Besides, in series [1], the “Imaging agent distribution, liver” value is listed as 13.1 ± 2.17 % ID/g; the “Imaging agent distribution, lung” value was 0.97 ± 0.121 % ID/g; the “Imaging agent distribution, muscle” value is listed as 0.50 ± 0.073 % ID/g; the “Imaging agent distribution, spleen” value was determined as 0.69 ± 0.085 % ID/g. Also, in series [1], the “Imaging agent distribution, tumor” value is 0.95 ± 0.103 % ID/g and the “Imaging agent distribution, urine” value was 71.8 % ID/g. On activated MMP-9, this compound returned an IC50 of 20.2 nM. The compound further yielded an IC50 at activated MMP-2 of 31.6 nM.

Take `CC(C)C[C@H]1C(=O)N[C@H](C(=O)NCC(=O)NCCCF)Cc2ccc(cc2)OCCC[C@@H]1C(=O)NO` [Imaging Agent 3]: the IC50 against activated MMP-9 came out at 2.59 nM; against activated MMP-2, 4.61 nM.

In the case of `CC(C)C[C@H]1C(=O)N[C@H](C(=O)NCC(=O)NCCCCCF)Cc2ccc(cc2)OCCC[C@@H]1C(=O)NO` [Imaging Agent 4], in series [1], the “Imaging agent distribution, blood” value came to 0.41 ± 0.099 % ID/g; the “Imaging agent distribution, bone” value is on record as 1.28 ± 0.200 % ID/g; the “Imaging agent distribution, heart” value is on record as 0.36 ± 0.064 % ID/g; the “Imaging agent distribution, kidney” value is reported as 14.8 ± 1.79 % ID/g. Also, in series [1], the “Imaging agent distribution, liver” value is reported as 23.6 ± 5.19 % ID/g; the “Imaging agent distribution, lung” value is recorded as 0.45 ± 0.071 % ID/g; the “Imaging agent distribution, muscle” value is listed as 0.17 ± 0.043 % ID/g; the “Imaging agent distribution, spleen” value is on record as 0.34 ± 0.057 % ID/g. In series [1], the “Imaging agent distribution, tumor” value is reported as 1.12 ± 0.204 % ID/g and the “Imaging agent distribution, urine” value came out at 7.67 ± 5.00 % ID/g. At activated MMP-9, the IC50 was found to be 15.3 nM. Also, the IC50 against activated MMP-2 came to 15.4 nM.

As for `CC(C)C[C@H]1C(=O)N[C@H](C(=O)NCc2ccc(F)cc2)Cc2ccc(cc2)OCCC[C@@H]1C(=O)NO` [Imaging Agent 5], the IC50 against activated MMP-9 turned out to be 0.74 nM; against activated MMP-2, 0.58 nM.

For the compound `CC(C)C[C@H]1C(=O)N[C@H](C(=O)NCc2ccc(OCCCF)cc2)Cc2ccc(cc2)OCCC[C@@H]1C(=O)NO` [Imaging Agent 6], in series [1], the “Imaging agent distribution, blood” value is 0.88 ± 0.061 % ID/g; the “Imaging agent distribution, bone” value was determined as 2.86 ± 0.124 % ID/g; the “Imaging agent distribution, heart” value worked out at 0.69 ± 0.073 % ID/g; the “Imaging agent distribution, kidney” value is 6.66 ± 1.46 % ID/g. In addition, in series [1], the “Imaging agent distribution, liver” value is listed as 11.3 ± 1.73 % ID/g; the “Imaging agent distribution, lung” value turned out to be 1.69 ± 0.382 % ID/g; the “Imaging agent distribution, muscle” value stood at 0.44 ± 0.049 % ID/g; the “Imaging agent distribution, spleen” value amounted to 0.81 ± 0.021 % ID/g. Besides, in series [1], the “Imaging agent distribution, tumor” value came out at 0.73 ± 0.026 % ID/g and the “Imaging agent distribution, urine” value is given as 7.21 ± 6.71 % ID/g. At activated MMP-9, this compound had an IC50 of 2.98 nM. This compound also had an IC50 against activated MMP-2 of 2.74 nM.

For `CC(C)OC(=O)C(C)(C)Oc1ccc(C(=O)c2ccc(Cl)cc2)cc1` [fenofibrate], the “99mTc-RP805 uptake in the aortic arch under HFD plus anti-lipid drug” value with activated MMPs is on record as 2.23±0.28 counts per voxel per mCi injected dose.

As for `CCC(C)(C)C(=O)O[C@H]1C[C@@H](C)C=C2C=C[C@H](C)[C@H](CC[C@@H]3C[C@@H](O)CC(=O)O3)[C@H]21` [simvastatin], in the series on activated MMPs, the “99mTc-RP805 uptake in the aortic arch under HFD plus anti-lipid drug” value is given as 3.17±0.52 counts per voxel per mCi injected dose.

Usually IC50 stands for the concentration at which inhibition is half-maximal. Higher therefore signals weaker potency in that assay.
